Tests used:
Drp1 = Drp1 (Mus musculus, UniProt Q8K1M6); experiment: GTP hydrolysis by purified Drp1; format: biochemical
MiD51 = MiD51 (Mus musculus, UniProt Q8BGV8); experiment: fluorescence anisotropy equilibrium titration; format: binding
Sequence of MiD51 (Q8BGV8 134-463): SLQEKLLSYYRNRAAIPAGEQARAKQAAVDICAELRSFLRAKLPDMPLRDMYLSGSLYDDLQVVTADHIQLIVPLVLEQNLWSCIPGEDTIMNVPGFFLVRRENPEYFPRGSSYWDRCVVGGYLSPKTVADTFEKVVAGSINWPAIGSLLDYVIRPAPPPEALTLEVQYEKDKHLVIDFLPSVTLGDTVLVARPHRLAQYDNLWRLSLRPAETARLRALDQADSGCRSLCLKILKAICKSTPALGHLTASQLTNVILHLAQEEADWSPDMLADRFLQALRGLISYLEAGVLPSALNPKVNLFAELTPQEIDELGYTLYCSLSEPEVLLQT

Sequence of Drp1 (Q8K1M6 whole entry): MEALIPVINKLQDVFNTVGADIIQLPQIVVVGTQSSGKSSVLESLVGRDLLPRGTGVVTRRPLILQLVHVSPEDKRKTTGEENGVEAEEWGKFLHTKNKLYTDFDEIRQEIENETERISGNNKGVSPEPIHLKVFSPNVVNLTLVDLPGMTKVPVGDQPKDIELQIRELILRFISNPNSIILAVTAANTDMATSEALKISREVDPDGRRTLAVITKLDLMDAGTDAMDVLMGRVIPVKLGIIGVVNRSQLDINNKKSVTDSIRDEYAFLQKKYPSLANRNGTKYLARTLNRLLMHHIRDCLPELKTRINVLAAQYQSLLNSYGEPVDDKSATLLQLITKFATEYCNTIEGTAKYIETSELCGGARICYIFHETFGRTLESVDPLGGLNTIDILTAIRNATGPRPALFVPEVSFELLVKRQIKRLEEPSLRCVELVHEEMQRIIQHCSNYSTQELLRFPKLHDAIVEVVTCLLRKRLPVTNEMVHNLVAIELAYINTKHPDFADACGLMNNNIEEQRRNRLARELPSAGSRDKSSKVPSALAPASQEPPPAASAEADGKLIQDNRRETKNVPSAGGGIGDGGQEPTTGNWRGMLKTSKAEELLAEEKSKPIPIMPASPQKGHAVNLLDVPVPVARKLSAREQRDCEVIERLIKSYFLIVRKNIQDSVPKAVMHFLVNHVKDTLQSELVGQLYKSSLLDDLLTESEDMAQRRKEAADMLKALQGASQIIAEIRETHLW

Kd (MiD51) [µM] | SMILES | GTP hydrolysis by purified Drp1 ([γ-32P]-GTP, thin-layer chromatography); abolis (Drp1)
– | Nc1nc2c(ncn2[C@@H]2O[C@H](COP(=O)(O)OP(=O)(O)OP(=O)(O)O)[C@@H](O)[C@H]2O)c(=O)[nH]1 [GTP] | ~ 1.5 molecules of GTP per minute
8 | CNc1ccccc1C(=O)O[C@H]1[C@@H](O)[C@H](n2cnc3c(=O)[nH]c(N)nc32)O[C@@H]1COP(=O)(O)OP(=O)(O)O [MANT-GDP] | –
